Among the data in PMC6151782, “Synthesis, In Vitro α-Glucosidase Inhibitory Activity and Molecular Docking Studies of Novel Benzothiazole-Triazole Derivatives” (Molecules : A Journal of Synthetic Chemistry and Natural …, 2017) are IC50 and melting point values, retold here.

For data set [1], the target named is T1, Baker’s yeast α-glucosidase enzyme (Saccharomyces cerevisiae, UniProt P53341).
T1 construct: purchased
Briefly: biochemical. The text has this:
The sample solution was replaced by DMSO as a control. Acarbose was used as a positive control.

The IC50 is the concentration that gives 50% inhibition. Low readings indicate higher potency, high ones lower potency. As a reminder, the melting point is the temperature, or range, at which the solid turns liquid.

T1 sequence (P53341 whole entry): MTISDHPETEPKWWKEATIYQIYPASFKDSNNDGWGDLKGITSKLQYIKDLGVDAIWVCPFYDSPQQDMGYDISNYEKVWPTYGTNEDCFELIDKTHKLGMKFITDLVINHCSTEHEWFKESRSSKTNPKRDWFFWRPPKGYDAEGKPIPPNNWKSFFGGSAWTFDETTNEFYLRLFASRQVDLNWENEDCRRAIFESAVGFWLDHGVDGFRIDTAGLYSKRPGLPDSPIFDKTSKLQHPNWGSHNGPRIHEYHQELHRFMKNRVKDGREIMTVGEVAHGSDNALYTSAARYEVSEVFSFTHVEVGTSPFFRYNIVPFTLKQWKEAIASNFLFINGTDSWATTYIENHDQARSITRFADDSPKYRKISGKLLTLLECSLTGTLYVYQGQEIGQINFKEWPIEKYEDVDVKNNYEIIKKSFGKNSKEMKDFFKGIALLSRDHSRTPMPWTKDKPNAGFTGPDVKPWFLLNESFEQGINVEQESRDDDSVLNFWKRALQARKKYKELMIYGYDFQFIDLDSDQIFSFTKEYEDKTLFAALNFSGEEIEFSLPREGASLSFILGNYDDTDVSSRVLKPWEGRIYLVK

With `Brc1ccccc1Cn1cc(CSc2nc3ccccc3s2)nn1` [Compound 6c, 2-(((1-(2-Bromobenzyl)-1H-1,2,3-triazol-4-yl)methyl)thio)benzo[d]thiazole], the melting point was in the range of 104 to 106 °C. This compound showed an IC50 in data set [1] of 37.4 µM.

Compound `Clc1ccc2sc(SCc3cn(Cc4ccccc4)nn3)nc2c1` [Compound 6r, 2-(((1-Benzyl-1H-1,2,3-triazol-4-yl)methyl)thio)-5-chlorobenzo[d]thiazole] yielded a melting point of 142 to 144 °C. In data set [1], this compound displayed an IC50 of 44.4 µM.

Consider `Clc1ccc2sc(SCc3cn(Cc4ccccc4Cl)nn3)nc2c1` [Compound 6l, 5-Chloro-2-(((1-(2-chlorobenzyl)-1H-1,2,3-triazol-4-yl)methyl)thio)benzo[d]thiazole], for which the melting point lay within 128 to 130 °C. In addition, the midpoint of inhibition in data set [1], the IC50, lay at 33.6 µM.

The compound `Clc1ccc2sc(SCc3cn(Cc4ccccc4Br)nn3)nc2c1` [Compound 6k, 2-(((1-(2-Bromobenzyl)-1H-1,2,3-triazol-4-yl)methyl)thio)-5-chlorobenzo[d]thiazole] returned a melting point of 119 to 120 °C. This compound also registered a concentration for half-maximal inhibition (IC50) in data set [1] of 48.4 µM.

`c1ccc(Cn2cc(CSc3nc4ccccc4s3)nn2)cc1` [Compound 6g, 2-(((1-Benzyl-1H-1,2,3-triazol-4-yl)methyl)thio)benzo[d]thiazole] displayed a melting point of 109 to 110 °C. The compound further had an IC50 in data set [1] of more than 100 µM.

Consider `CC(C)(C)c1ccc(Cn2cc(CSc3nc4ccccc4s3)nn2)cc1` [Compound 6i, 2-(((1-(4-(Tert-butyl)benzyl)-1H-1,2,3-triazol-4-yl)methyl)thio)benzo[d]thiazole], for which the melting point was in the range of 77 to 78 °C. The compound also displayed an IC50 in data set [1] of 29.4 µM.

For `Fc1ccc(Cn2cc(CSc3nc4cc(Cl)ccc4s3)nn2)cc1` [Compound 6q, 5-Chloro-2-(((1-(4-fluorobenzyl)-1H-1,2,3-triazol-4-yl)methyl)thio)benzo[d]thiazole], the melting point was 108 to 109 °C. The compound also yielded an IC50 in data set [1] of 53.1 µM.

`Clc1ccc(Cn2cc(CSc3nc4cc(Cl)ccc4s3)nn2)cc1` [Compound 6m, 5-Chloro-2-(((1-(4-chlorobenzyl)-1H-1,2,3-triazol-4-yl)methyl)thio)benzo[d]thiazole]: the melting point lay within 111 to 112 °C. In data set [1], this compound had an IC50 of 28.2 µM.

Consider `Clc1ccc2sc(SCc3cn(Cc4ccc(Br)cc4)nn3)nc2c1` [Compound 6n, 2-(((1-(4-Bromobenzyl)-1H-1,2,3-triazol-4-yl)methyl)thio)-5-chlorobenzo[d]thiazole], for which the melting point lay in the range of 114 to 116 °C. Further, in data set [1], the IC50 was found to be 28 µM.

Take `Fc1ccccc1Cn1cc(CSc2nc3ccccc3s2)nn1` [Compound 6f, 2-(((1-(2-Fluorobenzyl)-1H-1,2,3-triazol-4-yl)methyl)thio)benzo[d]thiazole]: the melting point lay in the range of 86 to 88 °C. In data set [1], this compound displayed an IC50 of more than 100 µM.

In turn, `Clc1ccc(Cn2cc(CSc3nc4ccccc4s3)nn2)cc1` [Compound 6e, 2-(((1-(4-Chlorobenzyl)-1H-1,2,3-triazol-4-yl)methyl)thio)benzo[d]thiazole] registered a melting point of 119 to 120 °C. In data set [1], this compound returned an IC50 of 27.4 µM.

As to `Brc1ccc(Cn2cc(CSc3nc4ccccc4s3)nn2)cc1` [Compound 6a, 2-(((1-(4-Bromobenzyl)-1H-1,2,3-triazol-4-yl)methyl)thio)benzo[d]thiazole], the melting point fell in the range of 112 to 114 °C. Moreover, in data set [1], the IC50 turned out to be 28.7 µM.

Take `Fc1cccc(Cn2cc(CSc3nc4cc(Cl)ccc4s3)nn2)c1` [Compound 6p, 5-Chloro-2-(((1-(3-fluorobenzyl)-1H-1,2,3-triazol-4-yl)methyl)thio)benzo[d]thiazole]: the melting point lay within 140 to 141 °C. For the same compound, the IC50 in data set [1] came to 38.6 µM.

`Clc1cc(Cl)cc(Cn2cc(CSc3nc4cc(Cl)ccc4s3)nn2)c1` [Compound 6o, 5-Chloro-2-(((1-(3,5-dichlorobenzyl)-1H-1,2,3-triazol-4-yl)methyl)thio)benzo[d]thiazole] returned a melting point of 124 to 126 °C. Further, the midpoint of inhibition in data set [1], the IC50, lay at 22.3 µM.

Regarding `Fc1cccc(Cn2cc(CSc3nc4ccccc4s3)nn2)c1` [Compound 6d, 2-(((1-(3-Fluorobenzyl)-1H-1,2,3-triazol-4-yl)methyl)thio)benzo[d]thiazole], the melting point was in the range of 112 to 114 °C. This compound came in with an IC50 in data set [1] of 61.1 µM.

For `Fc1ccccc1Cn1cc(CSc2nc3cc(Cl)ccc3s2)nn1` [Compound 6j, 5-Chloro-2-(((1-(2-fluorobenzyl)-1H-1,2,3-triazol-4-yl)methyl)thio)benzo[d]thiazole], the melting point is 115 to 117 °C. The compound further registered an IC50 in data set [1] of 45.9 µM.

In turn, `Clc1ccccc1Cn1cc(CSc2nc3ccccc3s2)nn1` [Compound 6b, 2-(((1-(2-Chlorobenzyl)-1H-1,2,3-triazol-4-yl)methyl)thio)benzo[d]thiazole] showed a melting point of 110 to 111 °C. In addition, the concentration for half-maximal inhibition (IC50) in data set [1] was more than 100 µM.
